Experimental data taken from PMC6161288, “Bioavailability of Eurycomanone in Its Pure Form and in a Standardised Eurycoma longifolia Water Extract” (Pharmaceutics, 2018).
Structures can show the parent of a compound that is named as a salt.

Assays:
Aqueous solubility = format: physicochemical
Description: The aqueous […] was estimated by adding 10 µL of eurycomanone stock solution (10 mM) to 490 µL of aqueous buffer at pH 5.4, pH 7.4 and DMSO in triplicates in deep-well plates. […] The plate was kept on a shaker (300 rpm) at room temperature for 16 h. The plate was then centrifuged at 25 °C, 4000 rpm for 25 min. The supernatant was transferred and analysed using LC-MS/MS.
Peak area 1 = peak area of the compound in 2% DMSO at the different pH levels.
Peak area 2 = peak area of the compound in 100% DMSO.

[1] = Lipophilicity, shake flask method with octanol and buffer (pH 7.4); format: physicochemical; conditions: pH 7.4
Description: The lipophilicity of eurycomanone was estimated using the shake flask method with octanol and buffer (pH 7.4). Eurycomanone (5 µL) at 5 mM concentration is added to octanol (495 µL) and DMSO (495 µL) and also into the aqueous and octanol phase in a 1:1 ratio ([…] of octanol phase and 247.5 µL of aqueous phase). The octanol and aqueous phases were prepared using a saturation process, where equal amounts of D-PBS (pH 7.4) and octanol were saturated (300 rpm, room temperature) for 24 h before being separated and kept at room temperature. The prepared mixtures were vortexed and kept on the shaker (300 rpm) at room temperature for 16 h. The mixtures were allowed to stand for 30 min, and 200 µL of solution was transferred and sent for HPLC analysis.

[2] = Caco-2 cell permeability assay; format: in vitro ADME; conditions: human, Caco-2, Efflux Ratio
Description: The Caco-2 assay was carried out after seeding the cells onto the membrane to form a confluent monolayer in 21 days. The media is removed from apical (A) and basolateral (B) chambers and the membrane is washed with HBSS buffer. Eurycomanone (10 µM, 200 µL) was added to the A compartment (which represents the intestinal lumen), and buffer (300 µL) was added to the B compartment (representing the blood), and vice versa. The plate was kept in a shaking incubator (37 °C) for 1 h. The amount of eurycomanone that had permeated across the cells was measured by LC-MS/MS, and the apparent permeability (Papp) values and efflux ratio were calculated. The expression of P-glycoprotein (P-gp) by differentiated Caco-2 cells was confirmed by measuring the Papp value and efflux ratio of vinblastine with and without the presence of a competing P-gp substrate, cyclosporine A. Eurycomanone was also measured with the presence of cyclosporine A to investigate whether eurycomanone may be transported via P-gp transporters.

Row | Aqueous solubility (Aqueous solubility; pH 5.4) | Aqueous solubility (Aqueous solubility; pH 7.4) | logD at 16 h [1] | efflux ratio at 1 h, 10 µM [2] | Compound
1 | moderate solubility | moderate solubility | 2.82 |  | C[C@]12CC[C@@H]3c4ccc(O)cc4CC[C@H]3[C@@H]1C[C@@H](O)[C@@H]2O [Estriol, estriol, reference compound]
2 |  |  |  | 14.7 | CC[C@]1(O)C[C@@H]2CN(CCc3c([nH]c4ccccc34)[C@@](C(=O)OC)(c3cc4c(cc3OC)N(C)[C@H]3[C@@](O)(C(=O)OC)[C@H](OC(C)=O)[C@]5(CC)C=CCN6CC[C@]43[C@@H]65)C2)C1 [Vinblastine, vinblastine, reference compound]
3 |  |  | 3.18 |  | CC/C(=C(/CC)c1ccc(O)cc1)c1ccc(O)cc1 [diethylstilbestrol]
4 |  |  | -0.29 |  | COCCc1ccc(OCC(O)CNC(C)C)cc1 (stereo not drawn) [metoprolol, metoprolol tartrate]
